Data set [1] deals with full thickness splinted wounds (8 mm diameter) of db/db mice. In words: Wound closure of full thickness splinted dermal wounds in diabetic mice. In kind it is in vivo, mouse. To be noted: for percentage wound closure: treated 6 times over 11 days (every other day). The text has this: In vivo studies: All procedures adhered to the recommendations in the Guide for the Care and Use of Laboratory Animals of the National Institutes of Health. The protocol for this experiment was approved by the Institutional Animal Care and Use Committee of University of California, Davis.
Creating of full thickness splinted dermal wounds: Genetically diabetic 12 week old male mice (db/db; BKS.Cg-m+/+Leprdb; Jackson Laboratories, Bar Harbor, ME) were used for this study. […] 8 mm Full thickness wounds were created on the dorsal surface of db/db mice as described previously (Park S. A. et al., 2014).
Mice in the sEGF group received native EGF (300 ng) dissolved in PEG immediately after wounding and twice daily until day 10. The NoTx group remained without any treatment through the study period. All wounds were dressed using a sterile coverslip and a semi-occlusive bandage.
(§1) Clinical and histological analyses: All analyses were performed as described previously (Park S. A. et al., 2014). Briefly, wounds were clinically evaluated and imaged daily, and the wound area was measured using image analysis software, and percentage wound closure was calculated. Mice were humanely euthanized on day 11 and the entire wound bed was harvested. Histologic analyses was performed by a board-certified veterinary pathologist.

Data set [2] is described as follows: Persistence of EGF in the wound bed by ELISA specific to anti-human EGF. It counts as in vivo, mouse. The conditions noted are these: for persistence of EGF in the wound bed: mass per mm^2 of tissue, in vivo. The protocol:
Detection of crosslinked EGF on dermal wounds: Persistence of CxEGF, qEGF and soluble EGF in the wound bed was determined using ELISA specific to anti-human EGF. Mice were euthanized at each time point and the wound bed was harvested. The tissue was digested using 7.5 Units/ml collagenase in the presence of 1 μM dithiothreitol (DTT) over 2 h at 37° C. This was centrifuged at 14000 RPM and the supernatant following which ELISA was performed. Specificity of the ELISA was verified using mouse recombinant EGF. Amount of EGF (mg) measured on the wound bed was expressed per surface area (mm^2) of the tissue.
The feasibility to tether sulfo-SMCC modified nanospheres to graft tissue was first evaluated (FIG. 9). Full thickness splinted wounds (8 mm in diameter) were created on heterozygous (db+/−;BKS.Cg-m+/+Leprdb) mouse as described above. Wound surfaces were treated with a reducing agent (tris(2-carboxyethyl)phosphine; TCEP) to break the disulfide bonds. The crosslinkers and reducing agents were used at non-toxic doses (FIG. 10). […] Immediately after the treatment, wounds were covered with a semi-occlusive dressing to minimize scab formation (Park Shin Ae et al., 2014). Wound beds were harvested at various time points and the presence of EGF attached on the surfaces was determined by ELISA (FIG. 3B). […] A gradual decrease in the amount of surface immobilized EGF was observed after 2 days. […] We note that the number of disulfide bonds available for anchoring CxEGF is difficult to ascertain in vivo and may thus contribute to the partial surface coverage. Secondary validation of the linkage chemistry was done using an in vitro model of the surface chemistry using (3 mercaptopropyl)trimethoxysilane (MPTS) or trimethoxy(propyl)silane (TPS) and maleimide by a reduction in contact angle and increased thickness of deposition (FIG. 3D). The mercapto group on the MPTS simulated sulfhydryl groups present on a native wound bed, and TPS was devoid of any functional group simulating a passivated wound surface.

For data set [3], the system named is HaCaT cells. Kind of data set: HaCaT proliferation (MTT) on surfaces with covalently immobilized EGF. In kind it is cell-based, human.
Description: Human 433 immortalized kertinocytes (HaCaT) cells were cultured in growth medium containing 1% (v/v) serum (FBS). The proliferation rates are expressed as % control when cultured on surfaces [trimethoxy(propyl)silane (TPS) or 3-mercaptopropyl trimethoxysilane (3-MPTS)] immobilized with EGF. As positive control, cells were also cultured in the growth medium containing 10% 437 (v/v) FBS. ***p<0.001, one-way ANOVA followed by Dunnett's multiple comparison test compared with control cultures (cells cultured in media with 1% serum).
In vitro surface modification: An in vitro model of the wound surface was generated by silanizing glass coverslips with either trimethoxy(propyl)silane (TPS) or 3-mercaptopropyl trimethoxysilane (3-MPTS). Disulfide bonds (if any) on the surface of the silanated coverslips were reduced using 10 μM tris(2-carboxyethyl)phosphine (TCEP) for 10 min to generate an abundance of —SH bonds. These exposed —SH groups were used to covalently immobilize EGF.
Measuring bioactivity in vitro: Human immortalized kertinocytes (HaCaT cells) were plated on unmodified glass surfaces, or on surfaces covalently immobilized with EGF, or on surfaced with quenched EGF, in Dulbeccos' modified Eagle's medium (DMEM) supplemented with 1% fetal bovine serum and proliferation was determined after 5 days using the MTT assay (Raghunathan et al., 2013). […]
The subject of data set [4] is wound bed from a db/db mouse. In words: Histopathological evaluation of wound bed of db/db mice after 11 days. In kind it is in vivo.
Description: FIG. 5A-C. Histopathological evaluations of a wound bed from a db/db mouse treated with/without crosslinked EGF over 11 days upon wounding. Scale Bars=500 μm. (A) Measurement of epithelial gap (blue line) and reepithelialization (red line). The epithelial gap was defined as the distance between the advancing edges of keratinocyte migration measured in millimeters. Length of reepithelialization was defined as the length of the layer of proliferating keratinocytes covering the wound area. This value was obtained by measuring s the distance between the free edge of the keratinocyte layer and the base where the cells were still associated with native, non-affected dermal tissue. The final value was the sum of distance in millimeters of both sides. H&E staining. Graphs indicate the mean f standard deviation of epithelial gap/re-epithelialized measure on surface wounds after 11 days with or without treatments. (B) Measurement of the fibrovascular dermal proliferation in the wound bed. Using picrosirius red stain under polarized light the bright collagen fibers of the wound bed are highlighted and automatically measured by the software. The final data is expressed as a percentage of outlined wound area comprised of collagen. Graphs indicate the mean f standard deviation of % collagen measured in surface wounds after 11 days with or without treatments. […] The inflammatory response was assessed using a semi-quantitative scoring system ranging from 0 to 4 where 0 indicates no inflammation, 1 indicates 0-25% of the wound area affected, 2 indicates 25-50% of the wound area affected, 3 indicates 50-75% of the wound area affected, and 4 indicates 75% of the wound area affected. H&E staining. Graphs indicate the mean±standard deviation of inflammation score. *p<0.05 compared with qEGF-6x, #p<0.05 compared with NoTx (t-test/Mann-Whitney rank sum test).
FIG. 11. Percentage distribution of inflammatory cells in wound bed of diabetic mice at the end of 11 days. […] Results are mean f standard deviation of the ratio of positive cells to total number of cells in the wound bed.
as §1

The next data set has as its system deep-partial burn wounds. To be noted: cited from earlier work.
Data set [5] deals with HaCaT cells. Kind of data set: HaCaT proliferation with soluble EGF. In kind it is cell-based, human. To be noted: 1% FBS, 0-80 ng/ml soluble EGF. Here is the method: FIG. 8. In vitro proliferation rates of spontaneously immortalized human keratinocytes (HaCaT cells), cultured in growth medium containing 1% (v/v) serum (FBS), treated with 0-80 ng/ml soluble EGF. Results are mean f standard deviation, ***p<0.001 (ANOVA followed by Dunnett's multiple comparison test) compared with control cultures.
EGF is a key growth factor involved in triggering wound re-epithelialization, one of the critical early events in wound closure, whose prolonged exposure is required for eliciting a cellular response (Bennett N. T. and Schultz G. S., 1993, Bennett N. T. and Schultz G. S., 1993, 171 Gipson and Inatomi, 1995, Jost et al., 2000). […] A full thickness splinted wound (8 mm in diameter) was created on each heterozygous (db+/−; BKS.Cg-m+/+ Leprdb) mouse as described previously (Park Shin Ae et al., 2014). […] Functional bioactivity of EGF was determined in vitro using spontaneously transformed keratinocytes (HaCaT cell line) from histologically normal skin (FIG. 8). As a possible contributor to the lack of significant positive effect, we observed a rapid loss of recombinant human EGF from the surface of wounds within 1 h of topical administration (FIG. 2B). […]

Where [6] appears, read: 6x, every other day over 11 days.
Where [7] appears, read: 30 ng crosslinked onto TCEP treated wound surface.
The mark [8] stands for this setting: ratio of positive cells to total cells, after 11 days.

“Also recorded” adds a separate entry of the source.

In the case of “CxEGF: Human recombinant EGF conjugated with sulfo-SMCC, covalently crosslinked onto TCEP-reduced wound surface”, the “wound closure rate (reduction of wound radii)” value in data set [1] (1x, immobilization only once immediately after wounding) is listed as “no significant effects on wound closure rate”. The “wound closure rate (decrease in wound radius per day)” value in data set [1] (3x, every 4 days) is recorded as “significantly higher wound closure rate”. Besides, the “wound closure rate (decrease in wound radius per day)” value in data set [1] (setting [6]) was “significantly higher wound closure rate”. Besides, the percentage wound closure entry in data set [1] (db/db mice) is “significant acceleration of wound closure; also recorded: significantly improved wound healing”. In data set [2] (setting [7]), the apparent surface coverage is reported as 2 pg/mm^2 and the “sustained surface immobilization of the growth factor” value is on record as 2 days. In data set [2] (ELISA), the “persistence of EGF in the wound bed” value is recorded as “increases persistence of EGF on the wound surface”. For the same substance, the “apparent surface coverage (equivalent)” value in data set [2] (equivalent of the pg/mm^2 value) is 1.99×10^8 molecules/mm^2. The “surface coverage as fraction of a theoretical monolayer of EGF” value in data set [2] (theoretical monolayer 213.6 pg/mm^2) is reported as 1/100. The “proliferation rate (% control)” value with HaCaT cells [3] (HaCaT, 1% FBS, TPS or 3-MPTS surfaces immobilized with EGF) is reported as “strongly promotes proliferation”. In the data set with HaCaT cells [3] (immobilized on MPTS or TPS coated glass, MTT, after 3 days of treatment), the “increase in cell proliferation” value is “over 2 fold”. Also, the “inflammation (semi-quantitative score 0 to 4)” value in data set [4] (6x, day 11, H&E) is listed as “reduction in inflammation”. In data set [4] (6x, day 11, H&E, versus qEGF, no treatment or soluble EGF), the epithelial gap result is on record as “dramatic decreases in epithelial gap”. The “inflammation (semi-quantitative score 0 to 4)” value in data set [4] (6x, day 11, H&E, listed as Cross linked EGF) was “elicited less inflammation”. Also, the collagen content result in data set [4] (6x, day 11, picrosirius red) is recorded as “comparable collagen content”. Also, in data set [4] (setting [8]), the “F-480 positive macrophages in wound bed” value is on record as “No statistically significant differences” and the “GR1 positive granulocytes in wound bed” value is given as “No statistically significant differences”.

Regarding “aFGF: topical recombinant human acidic fibroblast growth factor”, the fully healed rate in the data set with deep-partial burn wounds (deep-partial burn wounds, versus placebo) was 53.85%. For the same substance, the “mean healed time of the burn wounds” value in the data set with deep-partial burn wounds (placebo 18.92±0.49, p=0.035) was 17.23±0.53.

“qEGF: s-SMCC conjugated EGF with its maleimide group quenched with β-mercaptoethanol (NSDSECPLSHDGYCLHDGVCMYIEALDKYACNCVVGYIGERCQYRDLKWWELR; Epidermal growth factor sulfo-SMCC, maleimide quenched with β-mercaptoethanol; UniProt P01133 971-1023, looked up) [reference compound]”: the “wound closure rate (decrease in wound radius per day)” value in data set [1] (setting [6]) was “ineffective in altering wound healing rates”. The percentage wound closure result in data set [1] (db/db mice) is recorded as “NoTx group had a significantly higher percentage wound closure compared to the qEGF group”.

“sEGF: Human recombinant EGF (ProspecBio) dissolved in 5% (w/v) polyethylene glycol, applied topically”: in the data set on HaCaT cells [5], the “in vitro proliferation rate” value is recorded as “increased cell proliferation”. The “percentage wound closure / epithelial closure” value in data set [1] (soluble EGF 300 ng topically twice daily, over 11 days, db/db mice) was “did not significantly alter wound healing or epithelial closure; also recorded: did not promote epithelial closure”. In data set [2] (ELISA), the “persistence of EGF in the wound bed” value is listed as “rapidly removed from wound surface”. In data set [2] (topical administration, wound surface, ELISA), the “loss of recombinant human EGF from the surface of wounds after topical administration” value was ≤ 1 h.
